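96-well plates; 48 h exposure; 5 concentrations. Endpoints by linear interpolation between flanking doses. Not reached: highest tested concentration assigned. GI50: concentration for 50% inhibition of growth.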 Active and inactive are the calls of the source. No stated cut-off is given here; in the data, active = GI50 up to about 1.1 µM and inactive = higher.
Assays:
Experiment in all cases: growth of human tumour cells (NCI), 48 h
MDA-MB-435 = tested on: MDA-MB-435
U-251 = tested on: U-251
OVCAR-3 = tested on: OVCAR-3
HL-60 = tested on: HL-60
786-0 = tested on: 786-0
SF-295 = tested on: SF-295
RPMI-8226 = tested on: RPMI-8226
HOP-92 = tested on: HOP-92
SK-MEL-2 = tested on: SK-MEL-2
MOLT-4 = tested on: MOLT-4
SF-268 = tested on: SF-268
SR = tested on: SR
LOX IMVI = tested on: LOX IMVI
HCC 2998 = tested on: HCC 2998
KM12 = tested on: KM12
NCI-H522 = tested on: NCI-H522
SNB-19 = tested on: SNB-19
HCT-15 = tested on: HCT-15
SNB-75 = tested on: SNB-75
ACHN = tested on: ACHN

Measured: GI50

COC1CC(C)([N+](=O)[O-])C(O)C(C)O1 (centres undefined)
> 100 µM: HCT-15
inactive: MDA-MB-435 > 100 µM | U-251 > 100 µM | OVCAR-3 > 100 µM | HL-60 > 100 µM | 786-0 > 100 µM | SF-295 > 100 µM | RPMI-8226 > 100 µM | HOP-92 > 100 µM | SK-MEL-2 > 100 µM | MOLT-4 > 100 µM | SF-268 > 100 µM | SR > 100 µM | LOX IMVI > 100 µM | HCC 2998 > 100 µM | KM12 > 100 µM | NCI-H522 > 100 µM | SNB-19 > 100 µM | SNB-75 > 100 µM | ACHN > 100 µM

COc1ccc2c(c1)c(CC(=O)O)c(C)n2C(=O)c1ccc(Cl)cc1
> 100 µM: HCT-15
inactive: MDA-MB-435 > 100 µM | U-251 43.1 µM | OVCAR-3 56.6 µM | HL-60 44.3 µM | 786-0 75.3 µM | SF-295 > 100 µM | RPMI-8226 28.5 µM | HOP-92 4.42 µM | SK-MEL-2 60.3 µM | MOLT-4 > 100 µM | SF-268 > 100 µM | SR 16.3 µM | LOX IMVI > 100 µM | HCC 2998 35.6 µM | KM12 60.8 µM | NCI-H522 77.1 µM | SNB-19 56.9 µM | SNB-75 39.9 µM | ACHN > 100 µM

CCCCCC1=CC(=O)C1(Cl)Cl
12.6 µM: HCT-15
inactive: MDA-MB-435 11.1 µM | U-251 9.23 µM | OVCAR-3 8.69 µM | HL-60 1.83 µM | 786-0 13.9 µM | SF-295 18.9 µM | RPMI-8226 2.77 µM | HOP-92 13.4 µM | SK-MEL-2 20.4 µM | MOLT-4 3.67 µM | SF-268 14.7 µM | SR 6 µM | LOX IMVI 6.52 µM | HCC 2998 14.2 µM | KM12 13.2 µM | NCI-H522 5.24 µM | SNB-19 24.9 µM | SNB-75 11.1 µM | ACHN 8.3 µM

COc1ccc(C(C)c2cc3c(cc2O)OCO3)cc1 (centres undefined)
inactive: MDA-MB-435 4.56 µM | U-251 15.1 µM | OVCAR-3 13.9 µM | HL-60 13.2 µM | 786-0 17.9 µM | SF-295 14.3 µM | RPMI-8226 16.8 µM | HOP-92 16.3 µM | SK-MEL-2 14.9 µM | MOLT-4 9.02 µM | SF-268 14.9 µM | SR 2.74 µM | LOX IMVI 13.2 µM | HCC 2998 7.01 µM | KM12 12.9 µM | NCI-H522 11.4 µM | SNB-19 23.5 µM | SNB-75 20.3 µM | ACHN 19.7 µM
7.33 µM: HCT-15

COc1cc(-c2[nH]ccc2Cl)oc1C1=C2N=C3C=C2C(C(C)C)C1CCCCCCCC3 (centres undefined)
active: MDA-MB-435 0.401 µM | U-251 0.711 µM | OVCAR-3 0.61 µM | HL-60 0.299 µM | 786-0 0.449 µM | RPMI-8226 0.339 µM | SK-MEL-2 0.483 µM | MOLT-4 0.433 µM | SF-268 1.08 µM | SR 0.292 µM | LOX IMVI 0.167 µM | HCC 2998 0.341 µM | KM12 0.476 µM | NCI-H522 0.407 µM | ACHN 0.971 µM
inactive: SF-295 1.15 µM | HOP-92 1.69 µM | SNB-19 1.69 µM | SNB-75 1.12 µM
0.678 µM: HCT-15

COc1ccc(NC(=O)CC(=O)NNC(Sc2ccccc2)c2cc(/N=N/c3ccc(Br)cc3)ccc2O)cc1 (centres undefined)
> 10 µM: HCT-15
inactive: MDA-MB-435 > 10 µM | U-251 > 10 µM | OVCAR-3 2.21 µM | HL-60 3.61 µM | 786-0 6.73 µM | SF-295 > 10 µM | RPMI-8226 > 10 µM | HOP-92 > 10 µM | SK-MEL-2 > 10 µM | MOLT-4 3.86 µM | SF-268 > 10 µM | SR 8.89 µM | LOX IMVI > 10 µM | HCC 2998 > 10 µM | KM12 > 10 µM | NCI-H522 > 10 µM | SNB-19 > 10 µM | SNB-75 5.52 µM | ACHN > 10 µM

N=C(N)CCNC(=O)C1CCC(N)=N1 (centres undefined)
inactive: MDA-MB-435 31.5 µM | U-251 7.89 µM | OVCAR-3 9.82 µM | HL-60 37.5 µM | 786-0 13.1 µM | SF-295 18.9 µM | RPMI-8226 29.9 µM | HOP-92 11.6 µM | SK-MEL-2 27.2 µM | MOLT-4 12.2 µM | SF-268 10.3 µM | SR 18.5 µM | LOX IMVI 15.8 µM | HCC 2998 4.95 µM | KM12 6.79 µM | NCI-H522 23 µM | SNB-19 6.76 µM | SNB-75 12.2 µM | ACHN 13.8 µM
37.9 µM: HCT-15

CC1CC(C)C2=NOS3=C2C1=NO3 (centres undefined)
> 100 µM: HCT-15
inactive: MDA-MB-435 > 100 µM | U-251 > 100 µM | OVCAR-3 > 100 µM | HL-60 > 100 µM | 786-0 > 100 µM | SF-295 > 100 µM | RPMI-8226 > 100 µM | HOP-92 > 100 µM | SK-MEL-2 > 100 µM | MOLT-4 89.9 µM | SF-268 > 100 µM | SR > 100 µM | LOX IMVI > 100 µM | HCC 2998 > 100 µM | KM12 > 100 µM | NCI-H522 > 100 µM | SNB-19 > 100 µM | SNB-75 59.8 µM | ACHN > 100 µM

CCOC(=O)c1cccc(NC(=O)CCl)c1
inactive: MDA-MB-435 2.38 µM | U-251 1.4 µM | OVCAR-3 1.86 µM | HL-60 3.94 µM | 786-0 1.9 µM | SF-295 12.3 µM | RPMI-8226 3.99 µM | HOP-92 7.45 µM | SK-MEL-2 2.64 µM | MOLT-4 5.2 µM | SF-268 2.11 µM | SR 1.77 µM | LOX IMVI 1.34 µM | HCC 2998 2.19 µM | KM12 7.46 µM | NCI-H522 1.68 µM | SNB-19 28.6 µM | SNB-75 2.77 µM | ACHN 3.48 µM
2.75 µM: HCT-15

O=C(O)c1cc2ccccc2oc1=O [COUMARIN-3-CARBOXYLIC ACID]
> 100 µM: HCT-15
inactive: MDA-MB-435 > 100 µM | U-251 > 100 µM | OVCAR-3 > 100 µM | HL-60 > 100 µM | 786-0 > 100 µM | SF-295 > 100 µM | RPMI-8226 > 100 µM | HOP-92 > 100 µM | SK-MEL-2 > 100 µM | MOLT-4 > 100 µM | SF-268 > 100 µM | SR > 100 µM | LOX IMVI > 100 µM | HCC 2998 > 100 µM | KM12 > 100 µM | NCI-H522 > 100 µM | SNB-19 > 100 µM | SNB-75 > 100 µM | ACHN > 100 µM

O=C(NNS(=O)(=O)c1ccccc1)c1csc(NC(=S)NC2CCCCC2)n1
inactive: MDA-MB-435 20.6 µM | U-251 33.5 µM | OVCAR-3 4.07 µM | HL-60 69.5 µM | 786-0 15.4 µM | SF-295 32.1 µM | RPMI-8226 44.2 µM | HOP-92 55.2 µM | SK-MEL-2 22.3 µM | MOLT-4 36.5 µM | SF-268 22 µM | SR 36.9 µM | LOX IMVI 17.1 µM | HCC 2998 29 µM | KM12 36.3 µM | NCI-H522 26.2 µM | SNB-75 32.8 µM | ACHN 33.5 µM
41.6 µM: HCT-15

CC(=O)Oc1ccc(/C=C/C(=O)OCCOC(=O)/C=C/c2ccc(OC(C)=O)c(OC(C)=O)c2)cc1OC(C)=O
inactive: MDA-MB-435 6.55 µM | U-251 4.99 µM | OVCAR-3 5.36 µM | HL-60 3.95 µM | 786-0 5.06 µM | SF-295 8.97 µM | RPMI-8226 4.12 µM | HOP-92 5.77 µM | SK-MEL-2 17.5 µM | MOLT-4 5.61 µM | SF-268 8.43 µM | SR 3.78 µM | LOX IMVI 4.59 µM | HCC 2998 14.5 µM | KM12 10.1 µM | NCI-H522 2.93 µM | SNB-19 11.9 µM | SNB-75 4.23 µM | ACHN 4.05 µM
4.75 µM: HCT-15

CC(=O)O[C@H]1/C(=C/c2ccncc2)C[C@H]2[C@@H]3CC=C4C[C@@H](N5CCCC5)CC[C@]4(C)[C@H]3CC[C@]12C
10.1 µM: HCT-15
inactive: MDA-MB-435 12.1 µM | U-251 11.5 µM | OVCAR-3 21.8 µM | HL-60 8.38 µM | 786-0 3.15 µM | SF-295 14.5 µM | RPMI-8226 6.1 µM | HOP-92 4.24 µM | SK-MEL-2 15.5 µM | MOLT-4 11.5 µM | SF-268 15.1 µM | SR 5.2 µM | LOX IMVI 2.32 µM | HCC 2998 12.2 µM | KM12 11.9 µM | NCI-H522 15.2 µM | SNB-19 16.9 µM | SNB-75 14.7 µM | ACHN 14.1 µM

O=c1c(NO)c([N+](=O)[O-])cnn1-c1ccccc1
inactive: MDA-MB-435 1.88 µM | U-251 3.12 µM | OVCAR-3 2.98 µM | 786-0 6.07 µM | SF-295 12.2 µM | RPMI-8226 4.93 µM | HOP-92 7.64 µM | SK-MEL-2 14.9 µM | MOLT-4 2.39 µM | SF-268 12.5 µM | SR 2.78 µM | LOX IMVI 1.79 µM | HCC 2998 5.47 µM | KM12 9.62 µM | NCI-H522 1.97 µM | SNB-19 10.9 µM | SNB-75 14.6 µM | ACHN 8.53 µM
4.78 µM: HCT-15
active: HL-60 0.789 µM

— ChEMBL document CHEMBL1201862, “PubChem BioAssay data set” (2004)
